Measurements from paper PMC11467737, “Osteocalcin binds to a GPRC6A Venus fly trap allosteric site to positively modulate GPRC6A signaling” (FASEB BioAdvances, 2024).
Bridge positions count the residues as written; N and C are the ends. Ends that are not written are not given here.

Key:
[1] = tested on: wild‐type (Gprc6a +/+) and global knock out (Gprc6a −/−) mice; test: Serum IL-6 (ELISA) after intraperitoneal injection in mice; assay type: in vivo, mouse; details: 2 nmol/g IP, 24 h, n ≥ 5
Experimental: (§1) 8‐week‐old wild‐type (Gprc6a ^ +/+ ) and global knock out (Gprc6a ^ −/− ) mice were injected intraperitoneally with Ocn 20–29 (2 nmol/g body weight), or vehicle (saline; 10 μL/g body weight). Serum was collected at 24 h after intraperitoneal injection. Blood glucose levels were measured by using blood glucose strips and the Accu‐Check glucometer as described.[7], [31] A mouse IL‐6 ELISA Kit was purchased from Invitrogen (Waltham, MA, USA). Rat/Mouse FGF‐21ELISA Kit was obtained from Millipore Sigma (Burlington, MA, USA).
(§2) The Gprc6a ^ −/− mouse model was created by replacing exon 2 of the GPRC6A gene with the hygromycin resistance gene, as described previously.[32] Mice were maintained and used in accordance with recommendations as described (National Research Council 1985; Guide for the Care and Use of Laboratory Animals Department of Health and Human Services Publication NIH 86–23, Institute on Laboratory Animal Resources, Rockville, MD) and following guidelines established by the University of Tennessee Health Science Center Institutional Animal Care and Use Committee. The animal study protocol was approved by the institutional review boards at University of Tennessee Health Science Center Institutional Animal Care and Use Committee.

[2] = tested on: wild‐type (Gprc6a +/+) and global knock out (Gprc6a −/−) mice; test: Serum FGF-21 (ELISA) after intraperitoneal injection in mice; assay type: in vivo, mouse; details: 2 nmol/g IP, 24 h, n ≥ 5
Experimental: as §1, §2

[3] = target: T1, human GPRC6A isoform 2 (Homo sapiens, UniProt Q5T6X5); test: cAMP accumulation in HEK-293 cells transfected with human GPRC6A isoform 2; assay type: cell-based; details: isoform 2; Ocn 1.73-26.0 nM; 1 mM calcium; 40 min; Figure 2C
T1 construct: expressed in transfected cells; host or cells: HEK-293
T1 sequence (Q5T6X5 19-751 isoform Q5T6X5-2 limits assumed): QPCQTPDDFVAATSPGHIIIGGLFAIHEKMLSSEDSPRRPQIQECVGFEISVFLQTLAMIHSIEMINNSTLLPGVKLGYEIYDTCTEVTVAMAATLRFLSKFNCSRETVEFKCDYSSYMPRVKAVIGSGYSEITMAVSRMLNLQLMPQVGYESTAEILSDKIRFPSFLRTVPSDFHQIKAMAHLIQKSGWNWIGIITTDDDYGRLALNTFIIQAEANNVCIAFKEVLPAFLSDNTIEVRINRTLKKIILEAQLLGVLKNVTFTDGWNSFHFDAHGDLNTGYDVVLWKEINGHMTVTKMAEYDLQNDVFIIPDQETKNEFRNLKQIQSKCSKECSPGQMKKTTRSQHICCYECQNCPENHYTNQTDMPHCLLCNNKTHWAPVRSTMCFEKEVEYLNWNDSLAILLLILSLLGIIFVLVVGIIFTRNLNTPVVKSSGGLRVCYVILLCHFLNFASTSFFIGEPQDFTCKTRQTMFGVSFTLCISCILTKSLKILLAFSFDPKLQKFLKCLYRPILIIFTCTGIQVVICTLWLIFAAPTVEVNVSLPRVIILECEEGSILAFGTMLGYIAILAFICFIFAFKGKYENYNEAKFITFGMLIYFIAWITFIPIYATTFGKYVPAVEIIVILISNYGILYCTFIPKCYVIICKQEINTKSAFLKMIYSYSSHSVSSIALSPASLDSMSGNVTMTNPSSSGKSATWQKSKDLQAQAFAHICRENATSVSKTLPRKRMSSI
Experimental: (§3) HEK‐293 transfected with human GPRC6A isoform cDNA plasmids cells (10^5 cells/well)[30] were cultured in 24‐well plates in DMEM supplemented with 10% fetal bovine serum and 1% penicillin/streptomycin (100 U/mL of penicillin and 100 μg/mL of streptomycin) for 48 h followed by 4 h incubation in DMEM/F12 containing 0.1% BSA and 0.5 mM IBMX to achieve quiescence and preventing cAMP degradation. Quiescent cells were treated with vehicle control, various ligands at concentration as indicated for 40 min at 37°C. Then, the reaction was stopped, and the cells lysed with 0.5 mL 0.1 N HCl. cAMP levels were measured by using Cyclic AMP EIA kit (Cayman Chemical; Ann Arbor, MA, USA) following the manufacture's protocol.

[4] = target: T2, human GPRC6A isoform 3 (Homo sapiens, UniProt Q5T6X5); test: cAMP accumulation in HEK-293 cells transfected with human GPRC6A isoform 3; assay type: cell-based; details: isoform 3; Ocn 1.73-26.0 nM; 1 mM calcium; 40 min; Figure 2C
T2 construct: expressed in transfected cells; host or cells: HEK-293
T2 sequence (Q5T6X5 19-855 isoform Q5T6X5-3 limits assumed): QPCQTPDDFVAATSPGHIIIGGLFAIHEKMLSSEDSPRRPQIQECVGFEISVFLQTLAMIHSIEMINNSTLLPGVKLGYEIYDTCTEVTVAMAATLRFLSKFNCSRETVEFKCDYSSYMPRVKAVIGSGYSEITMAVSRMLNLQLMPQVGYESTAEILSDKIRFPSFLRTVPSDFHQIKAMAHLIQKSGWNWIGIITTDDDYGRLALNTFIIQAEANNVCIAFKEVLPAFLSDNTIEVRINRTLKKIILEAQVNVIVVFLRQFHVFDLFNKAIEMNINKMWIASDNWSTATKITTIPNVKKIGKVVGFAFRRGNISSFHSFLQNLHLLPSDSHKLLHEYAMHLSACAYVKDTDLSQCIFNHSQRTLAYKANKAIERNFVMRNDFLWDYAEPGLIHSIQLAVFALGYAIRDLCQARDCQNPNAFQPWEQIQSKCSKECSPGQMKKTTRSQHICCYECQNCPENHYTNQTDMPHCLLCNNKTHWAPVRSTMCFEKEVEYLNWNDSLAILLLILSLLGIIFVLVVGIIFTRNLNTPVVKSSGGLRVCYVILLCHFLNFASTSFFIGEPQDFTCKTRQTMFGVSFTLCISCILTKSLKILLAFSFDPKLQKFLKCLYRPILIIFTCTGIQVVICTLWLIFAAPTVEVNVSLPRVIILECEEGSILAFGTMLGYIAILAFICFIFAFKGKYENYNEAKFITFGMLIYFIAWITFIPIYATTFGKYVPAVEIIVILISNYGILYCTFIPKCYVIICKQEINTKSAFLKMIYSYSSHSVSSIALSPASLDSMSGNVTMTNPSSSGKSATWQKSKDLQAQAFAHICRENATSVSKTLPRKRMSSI
Experimental: as §3

[5] = target: T2, human GPRC6A isoform 3; test: ERK activation (ELISA) in HEK-293 cells transfected with human GPRC6A isoform 3; assay type: cell-based; details: Ocn 1.73-26.0 nM, 1 mM calcium, 15 min, Figure 2B
Experimental: (§4) All culture reagents were from Invitrogen (Waltham, MA, USA). Human embryonic kidney HEK‐293 cells were obtained from American Type Culture Collection and cultured in DMEM medium supplemented with 10% fetal bovine serum and 1% Penicillin/Streptomycin (P/S). Briefly, HEK‐293 cells transfected with/without human GPRC6A isoforms cDNA plasmids were starved by overnight incubation in serum‐free DMEM/F12 containing 0.1% bovine serum albumin (BSA) and stimulated with various ligands at different doses. […]

[6] = target: T1, human GPRC6A isoform 2; test: ERK activation (ELISA) in HEK-293 cells transfected with human GPRC6A isoform 2; assay type: cell-based; details: Ocn 1.73-26.0 nM, 1 mM calcium, 15 min, Figure 2B
Experimental: as §4

## REVCELNPDC (disulfide 4-10 (inferred)) [Ocn 20–29, synthesized human Ocn decapeptide fragment located in the middle of the protein]
[1]; Gprc6a −/− mice
  Serum IL-6 response: lost
[1]; wild-type Gprc6a +/+ mice
  Serum IL-6 level versus vehicle: significant increase
[2]; Gprc6a −/− mice
  Serum FGF-21 response: lost
[2]; wild-type Gprc6a +/+ mice
  Serum FGF-21 level versus vehicle: significant increase

## osteocalcin (YLYQWLGAPVPYPDPLEPRREVCELNPDCDELADHIGFQEAYRRFYGPV; not fully specified; ends and bridges not checked; UniProt P02818 52-100, looked up) [Ocn 1–49, full human Ocn (49 aa) synthesized by BioMatik; methods also describe decarboxylated Ocn purified from bovine tibial bone, reference compound]
[3]
  Ocn-induced cAMP accumulation, dose response: complete loss of cAMP activation
[4]
  Ocn-induced cAMP accumulation, dose response: maintained the cAMP response
[5]
  Ocn-induced ERK activation, dose response: attenuation of Ocn‐induced ERK stimulation
[6]
  Ocn-induced ERK activation, dose response: attenuated ERK response
